Results as given in publication PMC11233931, “Remodeling tumor‐associated macrophage for anti‐cancer effects by rational design of irreversible inhibition of mitogen‐activated protein kinase‐activated protein kinase 2” (MedComm, 2024).

Experiments:
Test in all cases: Eurofins kinase selectivity profile against 380 other human recombinant kinases (Table S2)
Assay type in all cases: biochemical
[1] = biological target: T1, 380 human recombinant protein kinases (Homo sapiens, UniProt P07949); details: Ret(h), read-out: Inhibition rate
T1 construct: purchased Eurofins (Celle Lévescault)
Outline: (§1)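 Profiling against 380 human recombinant kinases carried out by Eurofins at various compound concentrations.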

[2] = biological target: T2, 380 human recombinant protein kinases (Homo sapiens, UniProt Q00532); details: CDKL1(h), read-out: Inhibition rate
T2 construct: purchased Eurofins (Celle Lévescault)
Outline: as §1

[3] = biological target: T3, 380 human recombinant protein kinases (Homo sapiens, UniProt P51957); details: NEK4(h), read-out: Inhibition rate
T3 construct: purchased Eurofins (Celle Lévescault)
Outline: as §1

[4] = biological target: T4, 380 human recombinant protein kinases (Homo sapiens, UniProt Q8N4C8); details: MINK(h), read-out: Inhibition rate
T4 construct: purchased Eurofins (Celle Lévescault)
Outline: as §1

[5] = biological target: T5, 380 human recombinant protein kinases (Homo sapiens, UniProt P42684); details: Arg(h), read-out: Inhibition rate
T5 construct: purchased Eurofins (Celle Lévescault)
Outline: as §1

[6] = biological target: T6, 380 human recombinant protein kinases (Homo sapiens, UniProt P11802); details: CDK4/cyclinD3(h), read-out: Inhibition rate
T6 construct: purchased Eurofins (Celle Lévescault)
Outline: as §1

[7] = biological target: T7, 380 human recombinant protein kinases (Homo sapiens, UniProt Q13237); details: PRKG2(h), read-out: Inhibition rate
T7 construct: purchased Eurofins (Celle Lévescault)
T7 sequence (Q13237 1-762): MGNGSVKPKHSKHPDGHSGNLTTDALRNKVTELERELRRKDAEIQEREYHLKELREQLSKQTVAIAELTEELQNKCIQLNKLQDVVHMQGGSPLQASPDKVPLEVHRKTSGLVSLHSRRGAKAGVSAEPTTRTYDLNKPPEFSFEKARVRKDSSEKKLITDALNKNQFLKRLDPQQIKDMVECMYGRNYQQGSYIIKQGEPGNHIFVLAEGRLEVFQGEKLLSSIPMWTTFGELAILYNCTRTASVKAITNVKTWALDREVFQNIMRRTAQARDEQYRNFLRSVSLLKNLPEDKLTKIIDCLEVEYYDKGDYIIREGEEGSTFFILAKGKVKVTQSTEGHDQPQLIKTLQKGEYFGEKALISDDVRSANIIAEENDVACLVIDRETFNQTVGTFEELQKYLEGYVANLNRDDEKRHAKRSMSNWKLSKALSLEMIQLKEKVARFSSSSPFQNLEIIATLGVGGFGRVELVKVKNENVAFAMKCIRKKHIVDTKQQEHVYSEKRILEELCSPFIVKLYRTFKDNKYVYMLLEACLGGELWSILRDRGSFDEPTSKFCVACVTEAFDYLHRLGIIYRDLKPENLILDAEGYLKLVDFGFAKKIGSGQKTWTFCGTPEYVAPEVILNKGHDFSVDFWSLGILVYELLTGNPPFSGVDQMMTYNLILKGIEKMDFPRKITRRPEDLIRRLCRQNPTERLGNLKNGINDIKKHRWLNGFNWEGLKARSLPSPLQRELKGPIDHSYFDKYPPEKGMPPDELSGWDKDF
Outline: as §1

[8] = biological target: T8, 380 human recombinant protein kinases (Homo sapiens, UniProt Q15375); details: EphA7(h), read-out: Inhibition rate
T8 construct: purchased Eurofins (Celle Lévescault)
Outline: as §1

[9] = biological target: T9, 380 human recombinant protein kinases (Homo sapiens, UniProt Q9H422); details: HIPK3(h), read-out: Inhibition rate
T9 construct: purchased Eurofins (Celle Lévescault)
Outline: as §1

[10] = biological target: T10, 380 human recombinant protein kinases (Homo sapiens, UniProt Q16512); details: PRK1(h), read-out: Inhibition rate
T10 construct: purchased Eurofins (Celle Lévescault)
Outline: as §1

[11] = biological target: T11, 380 human recombinant protein kinases (Homo sapiens, UniProt Q13535); details: ATR/ATRIP(h), read-out: Inhibition rate (%)
T11 construct: purchased Eurofins (Celle Lévescault)
Outline: as §1

T11 sequence (Q13535 whole entry): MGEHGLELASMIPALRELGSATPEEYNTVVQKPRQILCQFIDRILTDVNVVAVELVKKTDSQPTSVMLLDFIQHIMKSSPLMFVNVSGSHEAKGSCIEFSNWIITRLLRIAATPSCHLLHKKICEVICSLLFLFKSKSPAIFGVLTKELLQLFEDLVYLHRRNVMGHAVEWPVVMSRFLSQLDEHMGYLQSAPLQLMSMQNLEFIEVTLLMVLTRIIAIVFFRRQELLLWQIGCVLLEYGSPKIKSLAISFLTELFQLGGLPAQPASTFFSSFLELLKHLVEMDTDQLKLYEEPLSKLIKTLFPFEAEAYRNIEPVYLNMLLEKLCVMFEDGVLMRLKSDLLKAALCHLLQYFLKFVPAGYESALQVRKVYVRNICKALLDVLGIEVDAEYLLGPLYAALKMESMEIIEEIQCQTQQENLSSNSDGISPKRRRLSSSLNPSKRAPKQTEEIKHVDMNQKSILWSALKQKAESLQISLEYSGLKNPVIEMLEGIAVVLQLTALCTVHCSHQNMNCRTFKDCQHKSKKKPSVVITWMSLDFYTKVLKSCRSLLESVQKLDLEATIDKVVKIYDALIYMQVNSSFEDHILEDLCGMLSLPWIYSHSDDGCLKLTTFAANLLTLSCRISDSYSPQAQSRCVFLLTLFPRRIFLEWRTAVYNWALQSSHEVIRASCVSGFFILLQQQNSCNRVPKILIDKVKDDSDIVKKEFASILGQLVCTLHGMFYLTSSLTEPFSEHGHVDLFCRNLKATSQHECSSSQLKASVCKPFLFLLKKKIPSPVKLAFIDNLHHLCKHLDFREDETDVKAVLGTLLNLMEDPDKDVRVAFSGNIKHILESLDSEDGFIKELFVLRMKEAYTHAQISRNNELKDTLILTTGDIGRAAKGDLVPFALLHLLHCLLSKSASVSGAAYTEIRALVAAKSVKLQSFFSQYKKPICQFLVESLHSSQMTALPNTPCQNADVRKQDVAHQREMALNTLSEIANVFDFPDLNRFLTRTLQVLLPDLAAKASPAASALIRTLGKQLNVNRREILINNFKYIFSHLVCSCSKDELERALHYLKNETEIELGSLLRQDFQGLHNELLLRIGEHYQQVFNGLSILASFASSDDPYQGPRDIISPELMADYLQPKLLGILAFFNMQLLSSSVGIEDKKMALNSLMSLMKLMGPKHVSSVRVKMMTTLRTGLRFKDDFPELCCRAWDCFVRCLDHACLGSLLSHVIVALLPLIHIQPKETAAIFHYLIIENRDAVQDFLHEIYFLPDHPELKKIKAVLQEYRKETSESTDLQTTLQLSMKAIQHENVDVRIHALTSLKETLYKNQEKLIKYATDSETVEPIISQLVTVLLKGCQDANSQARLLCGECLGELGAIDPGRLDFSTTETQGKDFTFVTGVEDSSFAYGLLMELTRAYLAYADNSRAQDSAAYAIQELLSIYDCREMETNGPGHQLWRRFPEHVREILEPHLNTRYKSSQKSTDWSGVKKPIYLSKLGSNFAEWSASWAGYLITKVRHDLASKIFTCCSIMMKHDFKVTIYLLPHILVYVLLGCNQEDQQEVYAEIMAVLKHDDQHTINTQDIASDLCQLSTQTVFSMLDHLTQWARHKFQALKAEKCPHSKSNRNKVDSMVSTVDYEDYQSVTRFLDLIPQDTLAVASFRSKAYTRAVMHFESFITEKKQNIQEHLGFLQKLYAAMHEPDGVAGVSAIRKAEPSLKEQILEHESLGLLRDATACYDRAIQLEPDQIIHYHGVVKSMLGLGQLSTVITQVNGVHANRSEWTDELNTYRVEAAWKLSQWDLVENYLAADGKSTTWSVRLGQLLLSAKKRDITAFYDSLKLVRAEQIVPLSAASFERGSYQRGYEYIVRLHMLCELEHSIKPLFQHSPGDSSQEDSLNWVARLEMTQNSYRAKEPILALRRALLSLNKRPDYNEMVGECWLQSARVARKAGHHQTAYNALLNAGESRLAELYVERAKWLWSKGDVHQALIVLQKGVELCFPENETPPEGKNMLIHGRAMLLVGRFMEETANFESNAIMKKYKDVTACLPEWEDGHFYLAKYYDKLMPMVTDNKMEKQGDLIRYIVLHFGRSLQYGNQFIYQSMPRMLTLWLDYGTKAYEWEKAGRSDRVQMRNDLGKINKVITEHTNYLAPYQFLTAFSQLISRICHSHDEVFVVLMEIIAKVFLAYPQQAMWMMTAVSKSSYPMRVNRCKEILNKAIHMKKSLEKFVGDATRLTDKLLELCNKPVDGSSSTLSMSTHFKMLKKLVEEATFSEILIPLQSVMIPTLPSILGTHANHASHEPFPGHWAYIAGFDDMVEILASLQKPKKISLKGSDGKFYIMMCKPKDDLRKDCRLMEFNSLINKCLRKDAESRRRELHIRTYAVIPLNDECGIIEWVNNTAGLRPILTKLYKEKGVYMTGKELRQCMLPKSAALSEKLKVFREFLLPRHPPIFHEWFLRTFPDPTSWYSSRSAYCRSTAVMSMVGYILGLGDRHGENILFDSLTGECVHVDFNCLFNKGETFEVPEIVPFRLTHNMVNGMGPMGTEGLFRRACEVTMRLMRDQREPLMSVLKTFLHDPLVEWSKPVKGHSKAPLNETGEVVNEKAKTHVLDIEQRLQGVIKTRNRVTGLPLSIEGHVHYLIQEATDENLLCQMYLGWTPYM
T3 sequence (P51957 whole entry): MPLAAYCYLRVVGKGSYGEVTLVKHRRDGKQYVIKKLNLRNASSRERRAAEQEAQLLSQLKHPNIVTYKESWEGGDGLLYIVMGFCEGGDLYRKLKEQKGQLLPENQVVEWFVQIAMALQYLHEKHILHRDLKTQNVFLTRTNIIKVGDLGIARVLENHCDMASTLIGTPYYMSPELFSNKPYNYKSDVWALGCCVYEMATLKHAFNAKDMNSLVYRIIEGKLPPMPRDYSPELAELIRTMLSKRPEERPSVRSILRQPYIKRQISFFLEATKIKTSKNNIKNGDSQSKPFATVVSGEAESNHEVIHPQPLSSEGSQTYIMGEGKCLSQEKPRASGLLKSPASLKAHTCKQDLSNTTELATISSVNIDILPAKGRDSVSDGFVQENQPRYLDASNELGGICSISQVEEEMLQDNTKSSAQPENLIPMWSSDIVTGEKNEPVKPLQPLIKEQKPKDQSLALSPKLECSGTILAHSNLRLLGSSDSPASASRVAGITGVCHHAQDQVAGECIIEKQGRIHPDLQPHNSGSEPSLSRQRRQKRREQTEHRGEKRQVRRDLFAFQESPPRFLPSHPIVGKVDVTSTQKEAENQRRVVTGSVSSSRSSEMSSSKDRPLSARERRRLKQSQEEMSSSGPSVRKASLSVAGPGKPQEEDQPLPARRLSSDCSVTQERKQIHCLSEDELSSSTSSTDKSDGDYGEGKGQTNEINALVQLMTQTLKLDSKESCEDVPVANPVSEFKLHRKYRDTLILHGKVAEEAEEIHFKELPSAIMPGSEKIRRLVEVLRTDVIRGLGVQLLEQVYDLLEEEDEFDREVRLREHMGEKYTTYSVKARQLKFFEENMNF
T4 sequence (Q8N4C8 whole entry): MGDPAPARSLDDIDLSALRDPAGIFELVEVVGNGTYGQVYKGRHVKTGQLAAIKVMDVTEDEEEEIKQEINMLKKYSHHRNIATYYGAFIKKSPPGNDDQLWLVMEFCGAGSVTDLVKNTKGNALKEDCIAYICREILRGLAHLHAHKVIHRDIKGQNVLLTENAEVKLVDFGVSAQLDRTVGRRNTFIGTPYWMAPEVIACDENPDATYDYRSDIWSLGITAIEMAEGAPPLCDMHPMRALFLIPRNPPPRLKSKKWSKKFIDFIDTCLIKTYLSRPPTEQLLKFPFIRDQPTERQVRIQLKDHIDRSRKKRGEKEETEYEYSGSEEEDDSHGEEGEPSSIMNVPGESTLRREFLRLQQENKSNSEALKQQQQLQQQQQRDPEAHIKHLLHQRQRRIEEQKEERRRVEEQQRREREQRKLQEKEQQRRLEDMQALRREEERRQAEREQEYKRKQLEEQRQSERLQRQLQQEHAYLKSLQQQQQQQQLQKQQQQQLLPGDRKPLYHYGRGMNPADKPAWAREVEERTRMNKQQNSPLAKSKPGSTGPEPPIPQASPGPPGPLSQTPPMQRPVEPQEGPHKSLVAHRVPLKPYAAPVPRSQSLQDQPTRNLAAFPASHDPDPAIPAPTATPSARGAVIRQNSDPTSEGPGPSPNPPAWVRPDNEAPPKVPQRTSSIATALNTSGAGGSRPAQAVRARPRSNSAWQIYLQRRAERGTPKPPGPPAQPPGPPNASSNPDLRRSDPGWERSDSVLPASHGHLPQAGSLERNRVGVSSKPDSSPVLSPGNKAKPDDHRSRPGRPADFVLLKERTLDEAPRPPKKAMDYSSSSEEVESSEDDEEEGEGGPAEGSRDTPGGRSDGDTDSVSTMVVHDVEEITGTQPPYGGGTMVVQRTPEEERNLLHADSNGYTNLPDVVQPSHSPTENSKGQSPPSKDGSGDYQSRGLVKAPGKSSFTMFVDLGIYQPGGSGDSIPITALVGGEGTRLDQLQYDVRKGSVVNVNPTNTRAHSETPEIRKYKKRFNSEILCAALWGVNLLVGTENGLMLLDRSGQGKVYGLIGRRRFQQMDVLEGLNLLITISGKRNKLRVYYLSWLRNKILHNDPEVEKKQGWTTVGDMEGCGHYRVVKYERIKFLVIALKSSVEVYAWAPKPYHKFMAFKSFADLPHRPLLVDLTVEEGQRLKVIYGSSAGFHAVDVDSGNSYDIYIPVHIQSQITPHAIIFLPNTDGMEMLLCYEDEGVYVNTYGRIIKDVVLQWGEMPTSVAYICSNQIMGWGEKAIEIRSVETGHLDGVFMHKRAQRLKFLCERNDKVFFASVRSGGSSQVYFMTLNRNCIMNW
T6 sequence (P11802 whole entry): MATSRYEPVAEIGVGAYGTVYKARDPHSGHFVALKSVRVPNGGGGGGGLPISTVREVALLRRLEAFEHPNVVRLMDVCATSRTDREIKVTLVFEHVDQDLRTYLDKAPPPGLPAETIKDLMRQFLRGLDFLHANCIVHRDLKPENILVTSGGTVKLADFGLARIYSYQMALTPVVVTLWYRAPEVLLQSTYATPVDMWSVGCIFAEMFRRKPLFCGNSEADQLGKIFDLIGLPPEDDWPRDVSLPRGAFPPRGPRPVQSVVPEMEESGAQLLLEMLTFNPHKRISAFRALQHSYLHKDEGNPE

## C=CC(=O)Nc1cc(-c2cc(-c3cc4c([nH]3)CCNC4=O)ccn2)ccc1OC(F)(F)F [compound 11]
[1]; 10 nM
  inhibition at 0.01 µM: 12%
[1]; 100 nM
  inhibition at 0.1 µM: 2%
[1]; 1000 nM
  inhibition at 1 µM: 1%
[2]; 10 nM
  inhibition at 0.01 µM: 26%
[2]; 100 nM
  inhibition at 0.1 µM: 47%
[2]; 1000 nM
  inhibition at 1 µM: 49%
[3]; 10 nM
  inhibition at 0.01 µM: -2%
[3]; 100 nM
  inhibition at 0.1 µM: 5%
[3]; 1000 nM
  inhibition at 1 µM: 34%
[4]; 10 nM
  inhibition at 0.01 µM: -10%
[4]; 100 nM
  inhibition at 0.1 µM: 3%
[4]; 1000 nM
  inhibition at 1 µM: 31%
[5]; 10 nM
  inhibition at 0.01 µM: 1%
[5]; 100 nM
  inhibition at 0.1 µM: 2%
[5]; 1000 nM
  inhibition at 1 µM: 6%
[6]; 10 nM
  inhibition at 0.01 µM: 3%
[6]; 100 nM
  inhibition at 0.1 µM: 0%
[6]; 1000 nM
  inhibition at 1 µM: 2%
[7]; 10 nM
  inhibition at 0.01 µM: 7%
[7]; 100 nM
  inhibition at 0.1 µM: 19%
[7]; 1000 nM
  inhibition at 1 µM: 35%
[8]; 10 nM
  inhibition at 0.01 µM: 3%
[8]; 100 nM
  inhibition at 0.1 µM: -3%
[8]; 1000 nM
  inhibition at 1 µM: -11%
[9]; 10 nM
  inhibition at 0.01 µM: -9%
[9]; 100 nM
  inhibition at 0.1 µM: -8%
[9]; 1000 nM
  inhibition at 1 µM: 1%
[10]; 10 nM
  inhibition at 0.01 µM: -3%
[10]; 100 nM
  inhibition at 0.1 µM: 6%
[10]; 1000 nM
  inhibition at 1 µM: 4%
[11]; 10 nM
  inhibition at 0.01 µM: -15%
[11]; 100 nM
  inhibition at 0.1 µM: -17%
[11]; 1000 nM
  inhibition at 1 µM: -20%
